How the values were obtained:
rat [1] = experiment: general tolerance, LD50 i.v. in rat (7 days); format: in vivo; settings: meglumine salts
[2] = coefficient of distribution in 1-butanol/tris-HCl buffer; format: physicochemical; settings: pH 7.6, 1-butanol/tris-HCl buffer; meglumine salts
Description: It is furthermore seen from this table that the interaction of the new compounds with proteins is much less than that of the known comparison substances.

rat [3] = experiment: neural tolerance, ED50 pericerebral in rat (24 hours); settings: meglumine salts

## CNC(=O)c1c(I)c(C(=O)NCC(=O)Nc2c(I)c(C(=O)O)c(I)c(C(=O)NCCO)c2I)c(I)c(N(C)C(=O)COC)c1I [A, 5-(3-N-methylmethoxyacetamido-5-methylcarbamoyl-2,4,6-triiodine-benzamidoacetamido)-N-(2-hydroxyethyl)-2,4,6-triiodine-isophthalamic acid]
proteins
  Protein Bond: 2.5
Rat [1]
  Tolerance LD50 i.v. (7 days): ~ 10,000 mg I/kg of rat
[2]
  Coefficient of Distribution: < 0.001
Rat [3]
  Tolerance ED50 pericerebral (24 hours): ~ 100 mg I/kg of rat

## CNC(=O)c1c(I)c(C(=O)NCC(=O)Nc2c(I)c(C(=O)O)c(I)c(C(=O)NCCO)c2I)c(I)c(N(C)C(C)=O)c1I [B, 5-(3-N-methyl-acetamido-2,4,6-triiodine-5-methylcarbamoyl-benzamido-acetamido)-N-(2-hydroxyethyl)-2,4,6-triiodine-isophthalamic acid]
proteins
  Protein Bond: 6.8
Rat [1]
  Tolerance LD50 i.v. (7 days): ~ 7,500 mg I/kg of rat
[2]
  Coefficient of Distribution: 0.033
Rat [3]
  Tolerance ED50 pericerebral (24 hours): ~ 40 mg I/kg of rat

## CNC(=O)c1c(I)c(NC(C)=O)c(I)c(C(=O)O)c1I [C, 5-acetamido-2,4,6-triiodine-N-methyl-isophthalamic acid]
proteins
  Protein Bond: 7.6
Rat [1]
  Tolerance LD50 i.v. (7 days): ~ 7,500 mg I/kg of rat
[2]
  Coefficient of Distribution: 0.017
Rat [3]
  Tolerance ED50 pericerebral (24 hours): 60 mg I/kg of rat

Source: US4264572A, “X-ray contrast media” (Schering Aktiengesellschaft, priority 1978, dated 1981)
